Results reported in ChEMBL document CHEMBL6103615, “Thymidylate Kinase-Targeted Antimicrobial Peptides via Phage Display: A Novel Strategy against Gram-Negative Bacteria” (J Med Chem, 2025).
Calls of active or inactive are those of the source. No cut-off for these calls is given here.

Assays:
[1] = test system: Lactiplantibacillus plantarum; assay: Antibacterial activity against Lactobacillus plantarum 8014 incubated for 12 to 18 hrs by microbroth dilution method; type: functional; conditions: time 12-18 hrs
[2] = test system: Staphylococcus epidermidis; assay: Antibacterial activity against Staphylococcus epidermidis 12228 incubated for 12 to 18 hrs by microbroth dilution method; type: functional; conditions: time 12-18 hrs
[3] = test system: Staphylococcus aureus; assay: Antibacterial activity against methicillin-resistant Staphylococcus aureus 43300 incubated for 12 to 18 hrs by microbroth dilution method; type: functional; conditions: time 12-18 hrs
[4] = Cytotoxicity against porcine IPEC-J2 cells assessed as cell viability at 128 uM incubated for 4 hrs by MTT assay relative to control; type: toxicity, cell-based, Sus scrofa; conditions: pig, read-out: Activity
[5] = test system: Lactococcus lactis; assay: Antibacterial activity against Lactococcus lactis NZ9000 incubated for 12 to 18 hrs by microbroth dilution method; type: functional; conditions: time 12-18 hrs
[6] = test system: Escherichia coli; assay: Antibacterial activity against Escherichia coli 078 incubated for 12 to 18 hrs by microbroth dilution method; type: functional; conditions: time 12-18 hrs
[7] = Antibacterial activity against Salmonella choleraesuis 21493 incubated for 12 to 18 hrs by microbroth dilution method; type: functional, Salmonella enterica subsp. enterica serovar Choleraesuis; conditions: Salmonella enterica, time 12-18 hrs
[8] = test system: Enterococcus faecalis; assay: Antibacterial activity against Enterococcus faecalis 29212 incubated for 12 to 18 hrs by microbroth dilution method; type: functional; conditions: time 12-18 hrs
[9] = test system: Lacticaseibacillus rhamnosus; assay: Antibacterial activity against Lactobacillus rhamnosus 7469 incubated for 12 to 18 hrs by microbroth dilution method; type: functional; conditions: time 12-18 hrs
[10] = Relative hydrophobic moment of compound; type: physicochemical
[11] = Hydrophobicity of compound; type: physicochemical
[12] = test system: Pseudomonas aeruginosa; assay: Antibacterial activity against Pseudomonas aeruginosa PAO1 incubated for 12 to 18 hrs by microbroth dilution method; type: functional; conditions: time 12-18 hrs
[13] = test system: Escherichia coli; assay: Antibacterial activity against Escherichia coli K88 incubated for 12 to 18 hrs by microbroth dilution method; type: functional; conditions: time 12-18 hrs
[14] = test system: Salmonella typhimurium; assay: Antibacterial activity against Salmonella typhimurium 7731 incubated for 12 to 18 hrs by microbroth dilution method; type: functional, Salmonella enterica subsp. enterica serovar Typhimurium; conditions: Salmonella enterica, time 12-18 hrs
[15] = Cytotoxicity against mouse RAW264.7 cells assessed as cell viability at 128 uM incubated for 4 hrs by MTT assay relative to control; type: toxicity, cell-based; conditions: read-out: Activity
[16] = test system: Escherichia coli; assay: Antibacterial activity against Escherichia coli K99 incubated for 12 to 18 hrs by microbroth dilution method; type: functional; conditions: time 12-18 hrs
[17] = test system: Staphylococcus aureus; assay: Antibacterial activity against Staphylococcus aureus 29213 incubated for 12 to 18 hrs by microbroth dilution method; type: functional; conditions: time 12-18 hrs
[18] = test system: Escherichia coli; assay: Antibacterial activity against Escherichia coli 1515 incubated for 12 to 18 hrs by microbroth dilution method; type: functional; conditions: time 12-18 hrs
[19] = test system: Staphylococcus aureus; assay: Antibacterial activity against Staphylococcus aureus 25923 incubated for 12 to 18 hrs by microbroth dilution method; type: functional; conditions: time 12-18 hrs
[20] = test system: Pseudomonas aeruginosa; assay: Antibacterial activity against Pseudomonas aeruginosa 27853 incubated for 12 to 18 hrs by microbroth dilution method; type: functional; conditions: time 12-18 hrs
[21] = Hemolytic activity against human red blood cells at 2 to 128 uM relative to control; type: toxicity, cell-based, Erythrocyte; conditions: dose 2-128 µM, read-out: Activity
[22] = Binding affinity to 6xHis-tagged recombinant Escherichia coli TMK assessed as dissociation constant by BLI assay
[23] = test system: Escherichia coli; assay: Induction of morphological changes in Escherichia coli K88 assessed as cytoplasmic leakage at 2 uM incubated for 1 hr by TEM analysis; type: functional, organism-based
[24] = test system: Bacteria; assay: Antibacterial activity against bacterial cells at 1 to 64 uM incubated for 4 hrs in presence of 50 percent serum; type: functional, organism-based; conditions: dose 1-64 µM
[25] = test system: Bacteria; assay: Antibacterial activity against bacterial cells at pH 2 to 12; type: functional
[26] = test system: Bacteria; assay: Antibacterial activity against bacterial cells at 1 to 128 uM in presence of NaCl; type: functional, organism-based; conditions: dose 1-128 µM
[27] = test system: Bacteria; assay: Antibacterial activity against bacterial cells at 100 degreeC at 1 to 64 uM incubated for 60 mins; type: functional, organism-based; conditions: dose 1-64 µM
[28] = test system: Escherichia coli; assay: Induction of resistance development in Escherichia coli K88 at sub-MIC measured after 20 passages; type: functional, organism-based
[29] = test system: Escherichia coli; assay: Disruption of membrane integrity in Escherichia coli K88 at 2 uM by PI staining based flow cytometry (reference value: 0.1 %); type: functional
[30] = test system: Bacteria; assay: Antibacterial activity against bacterial cells at pH 4 to 10; type: functional
[31] = test system: Bacteria; assay: Antibacterial activity against bacterial cells at 1 to 128 uM in presence of CaCl; type: functional, organism-based; conditions: dose 1-128 µM
[32] = test system: Escherichia coli; assay: Induction of ROS generation in Escherichia coli K88 assessed as increase in fluorescence intensity incubated for 1 hr by DCFH-DA dye based analysis; type: functional, organism-based
[33] = test system: Escherichia coli; assay: Inhibition of DNA migration in Escherichia coli K88 at 64 uM incubated for 40 mins by agarose gel electrophoresis.; type: functional, organism-based
[34] = Effect on secondary structure of compound in PBS assessed as formation of alpha-helical conformation at 100 uM by CD analysis; type: physicochemical; conditions: buffer
[35] = test system: Escherichia coli; assay: Induction of morphological changes in Escherichia coli K88 assessed as membrane permeability at edges at 2 uM incubated for 1 hr by TEM analysis; type: functional, organism-based
[36] = test system: Escherichia coli; assay: Induction of morphological changes in Escherichia coli K88 assessed as membrane folding at 2 uM incubated for 1 hr by SEM analysis; type: functional, organism-based
[37] = test system: Bacteria; assay: Antibacterial activity against bacterial cells at pH 12; type: functional
[38] = test system: Bacteria; assay: Antibacterial activity against bacterial cells at pH 2; type: functional
[39] = test system: Escherichia coli; assay: Induction of morphological changes in Escherichia coli K88 assessed as membrane contraction at 2 uM incubated for 1 hr by SEM analysis; type: functional, organism-based

Substance | MIC [1] [µM] | MIC [2] [µM] | MIC [3] [µM] | viability at 4 h, 128 µM [4] [%] | MIC [5] [µM] | MIC [6] [µM] | MIC [7] [µM] | MIC [8] [µM] | MIC [9] [µM] | Activity [10] | Activity [11] | MIC [12] [µM] | MIC [13] [µM] | MIC [14] [µM] | viability at 4 h, 128 µM [15] [%] | MIC [16] [µM] | MIC [17] [µM] | MIC [18] [µM] | MIC [19] [µM] | MIC [20] [µM] | also measured
H-FASSHPSWKKIWKPGIKKWIK-OH | 128 | 128 | 128 | > 80 | 128 | 32 | 16 | 128 | 128 | 0.55 | 0.465 | 16 | 32 | 16 | > 80 | 32 | 128 | 32 | 128 | 32 | 
H-HSDANAWWKKIWKPGIKKWIK-OH | 128 | 128 | 128 | > 80 | 128 | 8 | 16 | 128 | 128 | 0.455 | 0.406 | 16 | 32 | 32 | > 80 | 16 | 128 | 16 | 128 | 32 | 
H-RLTTMVHWKKIWKPGIKKWIK-OH | 128 | 128 | 128 | > 80 | 128 | 8 | 16 | 128 | 128 | 0.439 | 0.51 | 4 | 4 | 8 | > 80 | 8 | 128 | 8 | 128 | 8 | hemolysis at up to 128 µM [21]: < 5%
H-WKKIWKPGIKKWIK-OH | 128 | 128 | 128 | > 80 | 128 | 32 | 16 | 128 | 128 | 0.727 | 0.495 | 16 | 16 | 32 | > 80 | 16 | 128 | 32 | 128 | 32 | Kd [22]: < 1 pM; Activity [23]: inactive; Activity [24]: Active; MIC [25]: 16 µM; Activity [26]: inactive; Activity [27]: Active; Activity [28]: inactive; Activity [29]: 16.3%; MIC [30]: 16 µM; Activity [31]: inactive; Activity [32]: Dose-dependent-effect; inhibition [33]: Active; Activity [34]: Active; Activity [35]: inactive; Activity [36]: inactive; MIC [37]: 32 µM; hemolysis at up to 128 µM [21]: < 5%; MIC [38]: 32 µM; Activity [39]: inactive
H-WTSNDTAWKKIWKPGIKKWIK-OH | 128 | 128 | 128 | > 80 | 128 | 128 | 64 | 128 | 128 | 0.532 | 0.41 | 64 | 64 | 64 | > 80 | 64 | 128 | 64 | 128 | 128 | hemolysis at up to 128 µM [21]: < 5%
H-YTVSATYWKKIWKPGIKKWIK-OH | 128 | 128 | 128 | > 80 | 128 | 8 | 16 | 128 | 128 | 0.452 | 0.517 | 8 | 8 | 8 | > 80 | 8 | 128 | 8 | 128 | 32 | hemolysis at up to 128 µM [21]: < 5%
